Data on eleven compounds can be found in PubChem BioAssay (NCI).

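Assay format: 96-well plates, 48-hour exposure. At the TGI there is no net growth.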

Test systems include MALME-3M melanoma; EKVX NSCLC; M14 melanoma; MCF7 breast; OVCAR-3 ovarian; 786-0 renal; BT-549 breast; K-562 leukemia; HL-60(TB) leukemia; UACC-257 melanoma.
Test in all cases: NCI tumour cell line growth inhibition, 48 h

Consider `Nc1ccc(C(=O)c2cn(CCN3CCOCC3)c3ccccc23)c2ccccc12`, for which the TGI in the test on MALME-3M melanoma is greater than 100 µM; with EKVX NSCLC, 90.8 µM; in the test with M14 melanoma, greater than 100 µM; with MCF7 breast, greater than 100 µM; with OVCAR-3 ovarian, greater than 100 µM; in the test with 786-0 renal, greater than 100 µM. The TGI with BT-549 breast was 58.3 µM; in the test with K-562 leukemia, 56.7 µM; in the test with HL-60(TB) leukemia, 44.8 µM; in the test with UACC-257 melanoma, greater than 100 µM.

Regarding `CCCCCCCCCCCCOCCCOP(=O)([O-])OCC[N+](C)(C)C`, the TGI in the test with MALME-3M melanoma is greater than 84.4 µM; in the test on EKVX NSCLC, greater than 100 µM; in the test with M14 melanoma, 98.2 µM; with MCF7 breast, greater than 100 µM; in the test with OVCAR-3 ovarian it was greater than 100 µM; with 786-0 renal, 37.4 µM. Moreover, the TGI in the test on BT-549 breast is 33.1 µM; in the test with K-562 leukemia, greater than 76.5 µM; with HL-60(TB) leukemia it was 55.5 µM; with UACC-257 melanoma, 98.9 µM.

Turning to `CCCCON1C[C@H](OC(C)=O)C(OC(C)=O)[C@H](OC(C)=O)C1` (stereo not given in full), the TGI with MALME-3M melanoma, with EKVX NSCLC, with M14 melanoma, in the test on MCF7 breast, in the test with OVCAR-3 ovarian and with 786-0 renal was greater than 100 µM throughout. For the same compound, the TGI in the test on BT-549 breast, in the test on K-562 leukemia, in the test on HL-60(TB) leukemia and in the test on UACC-257 melanoma was greater than 100 µM throughout.

Consider `c1c[nH]c(C23C4C5C6C4C2C6C53)n1` (stereo not given), for which the TGI in the test on MALME-3M melanoma, with EKVX NSCLC, in the test with M14 melanoma, in the test with MCF7 breast, in the test with OVCAR-3 ovarian and in the test on 786-0 renal was greater than 100 µM in each case. The TGI in the test with BT-549 breast, with K-562 leukemia, in the test with HL-60(TB) leukemia and in the test on UACC-257 melanoma was greater than 100 µM each time.

Take `CCOC(=O)C(Cc1cccn1C(=O)OC(C)(C)C)[N+](=O)[O-]` (stereo not given): the TGI with MALME-3M melanoma is 75.4 µM; with EKVX NSCLC, greater than 100 µM; in the test on M14 melanoma it was 40.9 µM; in the test with MCF7 breast it was greater than 100 µM; with OVCAR-3 ovarian it was 98.2 µM; in the test with 786-0 renal, 51.3 µM. The TGI was greater than 100 µM in the test on BT-549 breast, 79.6 µM in the test with K-562 leukemia, 48.1 µM in the test on HL-60(TB) leukemia and 59.3 µM in the test with UACC-257 melanoma.

As to `O=C(NCc1cccc2ccccc12)N/N=C\c1ccc(Cl)cc1`, the TGI in the test on MALME-3M melanoma, with EKVX NSCLC, in the test on M14 melanoma, in the test on MCF7 breast, with OVCAR-3 ovarian and in the test with 786-0 renal was greater than 100 µM in each case. Further, the TGI in the test on BT-549 breast, with K-562 leukemia, in the test with HL-60(TB) leukemia and in the test on UACC-257 melanoma was greater than 100 µM in each case.

With `O=C(N/N=C1/C(=O)c2c3ccccc3cc3cccc1c23)c1ccccc1`, the TGI in the test on MALME-3M melanoma is 68.5 µM; in the test with EKVX NSCLC, greater than 100 µM; in the test with M14 melanoma, greater than 100 µM; in the test on MCF7 breast, greater than 77.1 µM; in the test with OVCAR-3 ovarian it was greater than 100 µM; in the test on 786-0 renal, 43.1 µM. For the same compound, the TGI in the test on BT-549 breast, with K-562 leukemia, with HL-60(TB) leukemia and in the test with UACC-257 melanoma was greater than 100 µM throughout.

In the case of `CC1(C)C2CC(=O)C1(C)C(OCc1ccccc1)C2` (stereo not given), the TGI was greater than 100 µM with MALME-3M melanoma; greater than 100 µM with EKVX NSCLC; 71.3 µM with M14 melanoma; greater than 100 µM in the test with MCF7 breast; greater than 100 µM in the test on OVCAR-3 ovarian; greater than 100 µM in the test on 786-0 renal. The TGI in the test on BT-549 breast is greater than 100 µM; in the test with K-562 leukemia, 77.6 µM; in the test with HL-60(TB) leukemia, 62.3 µM; in the test with UACC-257 melanoma, greater than 100 µM.

As to `Cc1cn([C@@H]2O[C@H](CO[Si](C)(C)C(C)(C)C)[C@]3(O[C@H]3C(=O)NN)[C@H]2O[Si](C)(C)C(C)(C)C)c(=O)[nH]c1=O`, the TGI with MALME-3M melanoma was 11.8 µM; in the test on EKVX NSCLC, 22.4 µM; in the test on M14 melanoma, 20.4 µM; with MCF7 breast, 15.1 µM; in the test on OVCAR-3 ovarian, 15.9 µM; in the test with 786-0 renal it was 14.7 µM. Moreover, the TGI with BT-549 breast was 13.9 µM; in the test with K-562 leukemia, 7.17 µM; in the test on HL-60(TB) leukemia it was 6.09 µM; in the test on UACC-257 melanoma, 27.6 µM.

With `CC(C)=CCC/C(C)=C/CC/C(C)=C/CC/C(=C/CC/C(C)=C\CC/C(C)=C/CC/C(C)=C/CC/C(C)=C/Cc1cc(O)ccc1O)CO`, the TGI with MALME-3M melanoma worked out at 6.37 µM; in the test on EKVX NSCLC it was 33.5 µM; with M14 melanoma, 4.88 µM; with MCF7 breast, 15.2 µM; with OVCAR-3 ovarian, 16.5 µM; in the test on 786-0 renal, 9.66 µM. Moreover, the TGI in the test on BT-549 breast was 12.5 µM; in the test with K-562 leukemia, greater than 100 µM; in the test with HL-60(TB) leukemia, 9.5 µM; with UACC-257 melanoma it was 11.8 µM.

As to `O=[N+]([O-])c1cc2c(cc1/C=N/n1c(CO)nc3ccccc31)OCO2`, the TGI in the test with MALME-3M melanoma, in the test with EKVX NSCLC, in the test on M14 melanoma, in the test on MCF7 breast, with OVCAR-3 ovarian and with 786-0 renal was greater than 100 µM throughout. The TGI with BT-549 breast, in the test with K-562 leukemia, in the test on HL-60(TB) leukemia and with UACC-257 melanoma was greater than 100 µM each time.
